Assay [1] deals with T1, WT nNOSoxy (oxygenase domain of rat neuronal nitric oxide synthase) (Rattus norvegicus, UniProt P29476, V567S).
T1 construct: gene Nos1; oxygenase domain, aa 1-720 plus 6-histidine tag, plasmid pCWnNOSoxy, E. coli BL21(DE3), HisTrap purification
The assay is described as follows: biochemical. Conditions: read-out: Val567Ser. Set-up: UV-visible perturbation difference spectroscopy; displacement of heme-bound imidazole (0.5 mM), apparent dissociation constant. The protocol: (§1) The native enzymes (~1–2 μM) were incubated 5 min at 4 °C in 50 mM HEPES buffer pH 7.4 in the presence of 0.5 mM ImH and then equally divided into reference and sample cuvettes. After 2 min at room temperature, increasing concentrations of the studied compounds were added to the sample cuvette and equivalent amounts of buffer were added to the reference cuvette. Apparent dissociation constants (K s,app) were estimated by plotting the difference in absorbance between peak (~395 nm) and valley (~430 nm) as a function of added substrate or substrate analogue concentrations and fitting the data to a hyperbolic one‐site binding model by Origin (OriginLab Corp., Northampton, MA, USA). […] Effective K s values can be deduced from the K s,app and the K s values for ImH, assuming simple competitive binding equilibrium 37.

In assay [2] the target is T2, WT nNOSoxy (oxygenase domain of rat neuronal nitric oxide synthase) (Rattus norvegicus, UniProt P29476, V567T).
T2 construct: gene Nos1; oxygenase domain, aa 1-720 plus 6-histidine tag, plasmid pCWnNOSoxy, E. coli BL21(DE3), HisTrap purification
Kind of assay: biochemical. Also noted: UV-visible perturbation difference spectroscopy; displacement of heme-bound imidazole (0.5 mM), apparent dissociation constant. Conditions: read-out: Val567Thr. The protocol: as §1

The target of assay [3] is T3, WT nNOSoxy (oxygenase domain of rat neuronal nitric oxide synthase) (Rattus norvegicus, UniProt P29476, V567Y).
T3 construct: gene Nos1; oxygenase domain, aa 1-720 plus 6-histidine tag, plasmid pCWnNOSoxy, E. coli BL21(DE3), HisTrap purification
The assay is described as follows: biochemical. Set-up: UV-visible perturbation difference spectroscopy; displacement of heme-bound imidazole (0.5 mM), apparent dissociation constant. The conditions noted are these: read-out: Val567Tyr. The method, then: as §1

Assay [4] deals with T4, WT nNOSoxy (oxygenase domain of rat neuronal nitric oxide synthase) (Rattus norvegicus, UniProt P29476, V567F).
T4 construct: gene Nos1; oxygenase domain, aa 1-720 plus 6-histidine tag, plasmid pCWnNOSoxy, E. coli BL21(DE3), HisTrap purification
The assay is described as follows: biochemical. Also noted: UV-visible perturbation difference spectroscopy; displacement of heme-bound imidazole (0.5 mM), apparent dissociation constant. The conditions noted are these: read-out: Val567Phe. The method, then: as §1

Assay [5] addresses T5, WT nNOSoxy (oxygenase domain of rat neuronal nitric oxide synthase) (Rattus norvegicus, UniProt P29476, V567R).
T5 construct: gene Nos1; oxygenase domain, aa 1-720 plus 6-histidine tag, plasmid pCWnNOSoxy, E. coli BL21(DE3), HisTrap purification
Kind of assay: biochemical. Set-up: UV-visible perturbation difference spectroscopy; displacement of heme-bound imidazole (0.5 mM), apparent dissociation constant. The conditions noted are these: read-out: Val567Arg. The method, then: as §1

The target in assay [6] is T2, WT nNOSoxy (oxygenase domain of rat neuronal nitric oxide synthase). The assay is described as follows: UV-visible difference spectroscopy, heme-Fe(III)-imidazole complex formation. It counts as binding. Conditions: read-out: Val567Thr.
Assay [7] concerns the target T6, WT nNOSoxy (oxygenase domain of rat neuronal nitric oxide synthase) (Rattus norvegicus, UniProt P29476).
T6 construct: gene Nos1; oxygenase domain, aa 1-720 plus 6-histidine tag, plasmid pCWnNOSoxy, E. coli BL21(DE3), HisTrap purification
Described as above. It counts as binding. The text has this:
(§2) UV-visible difference spectroscopy, heme-Fe(III)-imidazole complex formation on WT nNOSoxy (oxygenase domain of rat neuronal nitric oxide synthase)

Assay [8] has as its target T4, WT nNOSoxy (oxygenase domain of rat neuronal nitric oxide synthase). Described as above. Format: binding. The conditions noted are these: read-out: Val567Phe.
Excerpt: as §2

In assay [9] the target is T5, WT nNOSoxy (oxygenase domain of rat neuronal nitric oxide synthase). The description is as above. It counts as binding. Conditions: read-out: Val567Arg.
Excerpt: as §2

For assay [10], the target named is T1, WT nNOSoxy (oxygenase domain of rat neuronal nitric oxide synthase). The assay is described as above. Format: binding. The conditions noted are these: read-out: Val567Ser.
Excerpt: as §2

Assay [11] concerns the target T3, WT nNOSoxy (oxygenase domain of rat neuronal nitric oxide synthase). Described as above. It counts as binding. Conditions: read-out: Val567Tyr.
Excerpt: as §2

T4 sequence (P29476 1-720 V567F): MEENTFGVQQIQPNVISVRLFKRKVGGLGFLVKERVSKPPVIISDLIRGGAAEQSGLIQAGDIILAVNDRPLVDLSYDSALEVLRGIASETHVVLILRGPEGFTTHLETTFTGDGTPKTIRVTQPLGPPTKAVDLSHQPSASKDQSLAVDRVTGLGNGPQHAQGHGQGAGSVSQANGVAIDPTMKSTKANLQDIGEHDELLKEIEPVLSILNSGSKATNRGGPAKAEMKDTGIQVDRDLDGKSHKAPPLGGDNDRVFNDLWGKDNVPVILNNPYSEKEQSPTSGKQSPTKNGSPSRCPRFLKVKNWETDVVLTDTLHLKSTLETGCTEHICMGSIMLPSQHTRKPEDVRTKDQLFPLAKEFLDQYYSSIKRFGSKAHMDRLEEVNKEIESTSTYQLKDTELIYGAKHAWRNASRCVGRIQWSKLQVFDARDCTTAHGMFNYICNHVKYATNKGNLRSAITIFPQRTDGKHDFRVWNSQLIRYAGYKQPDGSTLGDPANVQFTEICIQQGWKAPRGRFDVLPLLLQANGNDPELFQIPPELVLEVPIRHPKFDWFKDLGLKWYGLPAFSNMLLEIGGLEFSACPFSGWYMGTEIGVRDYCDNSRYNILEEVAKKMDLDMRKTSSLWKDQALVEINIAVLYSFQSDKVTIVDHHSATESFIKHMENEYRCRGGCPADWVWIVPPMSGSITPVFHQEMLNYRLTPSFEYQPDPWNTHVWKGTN
T1 sequence (P29476 1-720 V567S): as the sequence (P29476 1-720 V567F) above, with F567S counted along it
T5 sequence (P29476 1-720 V567R): as the sequence (P29476 1-720 V567F) above, with F567R counted along it
T3 sequence (P29476 1-720 V567Y): as the sequence (P29476 1-720 V567F) above, with F567Y counted along it
T2 sequence (P29476 1-720 V567T): as the sequence (P29476 1-720 V567F) above, with F567T counted along it
T6 sequence (P29476 1-720): as the sequence (P29476 1-720 V567F) above, with F567V counted along it

Take `CCCNC(=N)N` [compound 5, n-Propyl-guanidine]: the Kd in assay [1] is 122 ± 8 µM; in assay [2], 267 ± 63 µM; in assay [3], 295 ± 16 µM.

For `N=C(N)Nc1ccc(F)cc1` [compound 11, 4-fluorophenyl-guanidine], the figures for the Kd in assay [4] and in [1] were 165 ± 87 µM and 2.2 ± 0.4 µM, respectively.

`COc1ccc(NC(=N)N)cc1` [compound 12, 4-methoxyphenyl-guanidine]: the Kd stood at 7.8 ± 1.2 µM in assay [1] and 189 ± 63 µM in assay [2].

For the compound `CCCCNC(=N)N` [compound 6, n-Butyl-guanidine], the results for the Kd in [1] and in assay [2] were 322 ± 31 µM and 23 ± 5.6 µM, respectively.

As for `CC(C)NC(=N)N` [compound 9, Isopropyl-guanidine], the Kd was 293 ± 34 µM in [4]; over 500 µM in assay [5]; 34.2 ± 4.2 µM in assay [1]; 99 ± 19 µM in assay [2]; 147 ± 43 µM in assay [3].

Take `c1c[nH]cn1` [imidazole]: the Kd in assay [6] is 93 ± 24.7 µM; in [7], 76.3 ± 5.4 µM; in [8], 152 ± 26 µM; in assay [9], 262 ± 77 µM; in assay [10], 140 ± 16 µM; in assay [11], 11.1 ± 3 µM.

Regarding `N=C(N)NC1CC1` [compound 8, Cyclopropyl-guanidine], the Kd in assay [5] worked out at 237 ± 85 µM; in [1] it was 21.6 ± 3.9 µM; in [2], 20.2 ± 3.9 µM; in assay [3] it was 24.3 ± 1.4 µM.

(Values after paper PMC6120233, “Importance of Val567 on heme environment and substrate recognition of neuronal nitric oxide synthase” (FEBS Open Bio, 2018).)
